Experimental data published in patent publication US20120078529A1, “DETERMINING THE SEVERITY OF 5-FLUOROURACIL OVERDOSE” (WELLSTAT THERAPEUTICS CORPORATION, priority 2009, published 2012).
“Also recorded” adds a separate entry of the source. Read-outs that look alike come from different tables or passages of the source.

What was measured:
[1] = 5-fluorouracil toxicity severity score calculation; set-up: species or system human; details: base ten logarithms, dose in mg, administration rate in mg/hr
Source text: This invention provides a method of determining a 5-fluorouracil toxicity severity score for a patient receiving 5-fluorouracil, comprising calculating the square root of the sum of: (a) the square of the logarithm of the dose of 5-fluorouracil administered to the patient; and (b) the square of the logarithm of the administration rate of the 5-fluorouracil to the patient.
The severity score can be represented by the following equation:
Severity Score=[(log Dose)^2+(log Rate)^2]^1/2
Typically the logarithm is a base-ten logarithm (log10):
ti Severity Score=[(log10 Dose)^2+(log10 Rate)^2]^1/2
In accordance with this invention the dose and the dose rate can be expressed in any units, including all units that are conventional for expressing drug doses and dose rates. […] Whether they should receive vistonuridine should be evaluated on a case-by-case basis by the patient's physician. When units other than milligrams and mg/hr are utilized or a power relationship other than log10 is utilized in the calculation, the severity score will have a different numerical value and the skilled artisan can readily calculate the corresponding cut-offs distinguishing among lethal, seriously toxic but nonlethal, and nontoxic, doses. […]

[2] = system: 5FU overdose; details: cited from earlier work
[3] = cited from earlier work
[4] = system: lethal 5FU overdose; test: Vistonuridine antidote after lethal 5FU overdose in mice; type: in vivo
Procedure: Uridine is a specific pharmacologic antidote for 5FU poisoning. It reduces 5FU toxicity when taken up prior to the onset of cell death. However uridine has poor oral bioavailability (about 7%). Vistonuridine (chemical name: 2′,3′,5′-tri-O-acetyluridine) is an oral prodrug of uridine. […] Vistonuridine is rapidly converted to circulating uridine by deacetylation (FIG. 2). It is an effective antidote against 5FU poisoning when administered up to 48 hours or more after a lethal 5FU overdose in mice, and up to 96 hours or more in humans. (See Example 1 below).

[5] = system: 5FU overdose; test: Patients overdosed with 5FU treated with vistonuridine as an antidote; type: in vivo, human
Procedure: Seventeen patients overdosed with 5FU have been treated with vistonuridine as an antidote. Patients received vistonuridine (10 g q6h for 20 doses) beginning 8 to 96 hours after overdose. Data from 13 patients with similar 5FU overdoses provide the time course and outcomes for patients receiving available supportive care without vistonuridine. A severity score, integrating dose and infusion rate, was calculated for all the patients, and this tool could be used by healthcare workers to determine the expected severity and outcome of a 5FU overdose.
Wellstat Therapeutics Corporation was contacted by physicians of patients who had received 5FU overdoses, most due to infusion pump errors. Emergency Investigational New Drug approvals (INDs) were obtained from the U.S. Food and Drug Administration (FDA), and vistonuridine was promptly shipped or couriered to the clinics. Patients received vistonuridine beginning 8 to 96 hours after 5FU.

[6] = cited from earlier work; remark: listed apart in the source

## O=c1[nH]cc(F)c(=O)[nH]1 [5FU, 5-Fluorouracil]
[1]
  Severity score that indicates a lethal dose: ≥ 4.5
[2]; 11 cases, available supportive care, no vistonuridine
  Outcome of the 11 literature-reported 5FU overdose cases with predicted death: die from the overdose
[2]; individual 5FU overdose patient, best supportive care without vistonuridine
  Observed Outcome: Death; also recorded: Recovered
[3]; about 275,000 US cancer patients receive 5FU annually, NIH estimate
  Patients receiving 5FU who will develop a toxic reaction: about 3%
[3]; human, in vivo
  Patients who die each year from 5FU overexposure: more than 1300 patients

## CC(=O)OC[C@H]1O[C@@H](n2ccc(=O)[nH]c2=O)[C@H](OC(C)=O)[C@@H]1OC(C)=O [Vistonuridine, 2′,3′,5′-tri-O-acetyluridine]
[4]
  Time after lethal 5FU overdose at which the antidote is still effective: ≥ 48 h
[5]; 17 patients, most with relatively modest toxicity
  Outcome of all 17 overdose patients treated with vistonuridine: recovered fully
[5]; humans
  Time after 5FU overdose at which the antidote is still effective: ≥ 96 h
[5]; individual 5FU overdose patient, vistonuridine 10 g q6 hr for 20 doses beginning 8 to 96 hours after the 5FU overdose
  Observed Outcome: Recovered

## O=c1ccn([C@@H]2O[C@H](CO)[C@@H](O)[C@H]2O)c(=O)[nH]1 [uridine, Uridine]
[6]
  Oral bioavailability: about 7%
